Earlier results as cited in patent publication US20110319370A1, “Combination Hormone Therapy for the Eye” (DUQUESNE UNIVERSITY OF THE, priority 2010, published 2011).
Values after ≈ are worked out from the molar mass of the structure shown.

Assays:
[1] = system: newborn rats treated with buthionine sulfoximine (BSO); conditions: cataracts develop by age 16 days, reduced from 100% without melatonin

solubility in aqueous media (aqueous media): 2.4 mg/mL (≈ 10.3 mM) | solubility in organic solvents (organic solvents): 140.5 mg/mL (≈ 605 mM)
Compound: COc1ccc2[nH]cc(CCNC(C)=O)c2c1 [Melatonin]
cataract incidence [1]: 6.2%
